Reference: patent EP1228058B1, “BENZOPYRANYL GUANIDINE DERIVATIVES, PROCESS FOR PREPARATION THEREOF, AND PHARMACEUTICAL COMPOSITIONS CONTAINING THEM” (Dongbu Hannong Chemical Co., Ltd., priority 1999, dated 2001)

assay: Acute oral toxicity test in rats; conditions: rat, in vivo, single oral dose in 0.5% methyl cellulose, read-out: lethal dose (LD50) for oral administration
Protocol: In this test six-week old SPF SD rats were used with two rats assigned to each group. The compounds of examples 1, 2, 3, 5, 7, 8, 9, 10, 13, 14, 15, 19, 22, 23, 24, 25, 26, 28, 29, 30, 31, 32, 33, 34, 35, 36, 37, 38, 39, 40, 41, 44, 46, 47, 48, 49, 51, 52, 57, 58, 60, 62, 64, 67, 68, 69, 71 and 72 were suspended in 0.5% methyl cellulose, respectively, and administered orally at a single dose of 1 g/kg using a ball-tipped needle. The dosing volume was 10 ml/kg. […] All survivors at the end of the observation period underwent laparotomy under ether anesthesia and the blood samples were taken from the abdominal aorta for hematological tests and biochemical analysis. After sacrificing the animals, autopsy was performed for macroscopic observation of the organs and tissues. Tissue samples of vital organs from macroscopic legion were removed and fixed in 10% neutral buffered formalin solution, then processed by standard procedures for histopathology and examined under light microscope. There were no significant changes in clinical symptoms, body weight and mortalities. Also in hematology, serum chemistry parameters and macroscopic observation, no drug-related changes were observed.

Structure (SMILES) | LD50 [mg/kg]
COC(=O)c1ccc2c(c1)[C@@H](NC(=NC#N)NCc1ccccc1)[C@H](O)[C@](C)(C(OC)OC)O2 [Example 69, (2R, 3S, 4R)-N''-cyano-N (6-methoxycarbonyl-3,4-dihydro-3-hydroxy-2-methyl-2-dimthoxymethyl-2H-benzopyran-4-yl)-N'-benzylguanidine] | > 1000
CC1(C)COC([C@@]2(C)Oc3ccc([N+](=O)[O-])cc3[C@@H](NC(=NC#N)NCc3ccccc3)[C@@H]2O)OC1 [Example 64, (2S, 3S, 4R)-N''-cyano-N-(6-nitro-3,9-dihydro-3-hydroxy-2-methyl-2-([1,3]-5,5-dimethyldioxan-2-yl)-2H-benzopyran-4-yl)-N'-benzyl guanidine] | > 1000
CCOC(OCC)[C@@]1(C)Oc2ccc(N)cc2[C@@H](NC(=NC#N)NCc2ccccc2)[C@@H]1O [Example 67, (2S, 3S, 4R)-N''-cyano-N-(6-amino-3,4-dihydro-3-hydroxy-2-methyl-2-diethoxymethyl-2H-benzopyran-4-yl)-N'-benzylguanidine] | > 1000
C[C@]1(CO)Oc2ccc([N+](=O)[O-])cc2[C@@H](NC(=NC#N)Nc2ccc(Cl)cc2)[C@@H]1O [Example 29, (2R, 3S, 4R)-N''-cyano-N-(6-nitro-3,4-dihydro-3-hydroxy-2-methyl-2-hydroxymethyl-2H-benzopyran-4-yl)-N'-(4-chlorophenyl)guanidine] | > 1000
COC(=O)c1ccc2c(c1)[C@@H](NC(=NC#N)NCc1ccccc1)[C@H](O)[C@@](C)(C(OC)OC)O2 [Example 68, (2S, 3S, 4R)-N''-cyano-N-(6-methoxycarbonyl-3,4-dihydro-3-hydroxy-2-methyl-2-dimthoxymethyl-2H-benzopyran-4-yl)-N'-benzylguanidine] | > 1000
COC(OC)[C@@]1(C)Oc2ccc([N+](=O)[O-])cc2[C@H](NC(=NC#N)Nc2ccccc2C(F)(F)F)[C@H]1O [Example 34, (2S, 3R, 4S)-N''-cyano-N-(6-nitro-3,4-dihydro-3-hydroxy-2-methyl-2-dimethoxymethyl-2H-benzopyran-4-yl)-N'-(2-trifluoromethylphenyl)guanidine] | > 1000
COC(OC)[C@@]1(C)Oc2ccc([N+](=O)[O-])cc2[C@@H](NC(=NC#N)Nc2ccccc2C(F)(F)F)[C@@H]1O [Example 35, (2S, 3S, 4R)-N''-cyano-N-(6-nitro-3,4-dihydro-3-hydroxy-2-methyl-2-dimethoxymethyl-2H-benzopyran-4-yl)-N'-(2-trifluoromethylphenyl)guanidine] | > 1000
COC(OC)[C@]1(C)Oc2ccc([N+](=O)[O-])cc2[C@@H](NC(=NC#N)NCc2ccccc2)[C@@H]1O [Example 23, (2R, 3S, 4R)-N''-cyano-N-(6-nitro-3,4-dihydro-3-hydroxy-2-methyl-2-dimethoxymethyl-2H-benzopyran-4-yl)-N'-benzylguanidine] | > 1000
COc1ccc(NC(=NC#N)N[C@H]2c3cc([N+](=O)[O-])ccc3O[C@@](C)(C(OC)OC)[C@@H]2O)cc1 [Example 8, (2R, 3R, 4S)-N''-cyano-N-(6-nitro-3,4-dihydro-3-hydroxy-2-methyl-2-dimethoxymethyl-2H-benzopyran-4-yl)-N'-(4-methoxyphenyl) guanidine] | > 1000
COC(OC)[C@@]1(C)Oc2ccc([N+](=O)[O-])cc2[C@H](NC(=NC#N)NCc2ccccc2Cl)[C@H]1O [Example 36, (2S, 3R, 4S)-N''-cyano-N-(6 - nitro-3,4-dihydro-3-hydroxy-2-methyl-2-dimethoxymethyl-2H-benzopyran-4-yl)-N'-(2-chlorobenzyl)guanidine] | > 1000
COC(OC)[C@]1(C)Oc2ccc(N)cc2[C@H](NC(=NC#N)NCc2ccccc2)[C@H]1O [Example 58, (2R, 3R, 4S)-N''-cyano-N-(6-amino-3,4-dihydro-3-hydroxy-2-methyl-2-dimethoxymethyl-2H-benzopyran-4-yl)-N'-benzylguanidine] | > 1000
C[C@]1(CO)Oc2ccc([N+](=O)[O-])cc2[C@H](NC(=NC#N)Nc2ccc(Cl)cc2)[C@H]1O [Example 28, (2R, 3R, 4S)-N''-cyano-N-(6-nitro-3,4-dihydro-3-hydroxy-2-methyl-2-hydroxymethyl-2H-benzopyran-4-yl)-N'-(4-chlorophenyl)guanidine] | > 1000
COc1ccc(NC(=NC#N)N[C@@H]2c3cc([N+](=O)[O-])ccc3O[C@@](C)(C(OC)OC)[C@H]2O)cc1 [Example 9, (2R, 3S, 4R)-N''-cyano-N-(6-nitro-3,4-dihydro-3-hydroxy-2-methyl-2-dimethoxymethyl-2H-benzopyran-4-yl)-N'-(4-methoxyphenyl) guanidine] | > 1000
COC(OC)[C@@]1(C)Oc2ccc([N+](=O)[O-])cc2[C@@H](NC(=NC#N)Nc2cccc(Cl)c2)[C@@H]1O [Example 13, (2S, 3S, 4R)-N''-cyano-N-(6-nitro-3,4-dihydro-3-hydroxy-2-methyl-2-dimethoxymethyl-2H-benzopyran-4-yl)-N'-(3-chlorophenyl)guanidine] | > 1000
COC(OC)[C@]1(C)C=C(NC(=NC#N)NCc2ccccc2)c2cc([N+](=O)[O-])ccc2O1 [Example 39, (2S)-N''-cyano-N-(6-nitro-2-methyl-2-dimethoxymethyl-2H-benzopyran-4-yl)-N'-benzylguanidine] | > 1000
COC(OC)[C@@]1(C)Oc2ccc(C#N)cc2[C@H](NC(=NC#N)Nc2ccc(Cl)cc2)[C@H]1O [Example 44, (2S, 3R, 4S)-N''-cyano-N-(6-cyano-3,4-dihydro-3-hydroxy-2-methyl-2-dimethoxymethyl-2H-benzopyran-4-yl)-N'-(4-chlorophenyl)guanidine] | > 1000
COc1ccc(CNC(=NC#N)N[C@@H]2c3cc(N)ccc3O[C@](C)(C(OC)OC)[C@H]2O)cc1OC [Example 49, (2S, 3S, 4R)-N''-cyano-N-(6-amino-3,4-dihydro-3-hydroxy-2-methyl-2-dimethoxymethyl-2H-benzopyran-4-yl)-N'-(3,4-dimethoxybenzyl) guanidine] | > 1000
COC(OC)[C@@]1(C)Oc2ccc([N+](=O)[O-])cc2[C@H](NC(=NC#N)Nc2cccc(C(F)(F)F)c2)[C@H]1O [Example 14, (2S, 3R, 4S)-N''-cyano-N-(6-nitro-3,4-dihydro-3-hydroxy-2-methyl-2-dimethoxymethyl-2H-benzopyran-4-yl)-N'-(3-trifluoromethylphenyl)guanidine] | > 1000
COC[C@@]1(C)Oc2ccc([N+](=O)[O-])cc2[C@@H](NC(=NC#N)Nc2ccc(Cl)cc2)[C@@H]1O [Example 31, (2R, 3S, 4R)-N''-cyano-N-(6-nitro-3,4-dihydro-3-hydroxy-2-methyl-2-methoxymethyl-2H-benzopyran-4-yl)-N'-(4-chlorophenyl)guanidine] | > 1000
COC(OC)[C@@]1(C)Oc2ccc([N+](=O)[O-])cc2[C@@H](NC(=NC#N)NCc2ccccc2Cl)[C@@H]1O [Example 37, (2S, 3S, 4R)-N''-cyano-N-(6-nitro-3,4-dihydro-3-hydroxy-2-methyl-2-dimethoxymethyl-2H-benzopyran-4-yl)-N'-(2-chlorobenzyl)guanidine] | > 1000
C[C@]1(C2OCCO2)Oc2ccc([N+](=O)[O-])cc2[C@@H](NC(=NC#N)NCc2ccccc2)[C@@H]1O [Example 60, (2S, 3S, 4R)-N''-cyano-N-(6-nitro-3,4-dihydro-3-hydroxy-2-methyl-2-([1,3]dioxolan-2-yl)-2H-benzopyran-4-yl)-N'-benzylguanidine] | > 1000
COC(OC)[C@@]1(C)Oc2ccc(C#N)cc2[C@H](NC(=NC#N)NCc2ccccc2)[C@H]1O [Example 46, (2S, 3R, 4S)-N''-cyano-N-(6-cyano-3,4-dihydro-3-hydroxy-2-methyl-2-dimethoxymethyl-2H-benzopyran-4-yl)-N'-benzylguanidine] | > 1000
COC(OC)[C@@]1(C)Oc2ccc(Br)cc2[C@@H](NC(=NC#N)NCc2ccccc2)[C@@H]1O [Example 47, (2S, 3S, 4R)-N''-cyano-N-(6-bromo-3,4-dihydro-3-hydroxy-2-methyl-2-dimethoxymethyl-2H-benzopyran-4-yl)-N'-benzylguanidine] | > 1000
COC(OC)[C@]1(C)Oc2ccccc2[C@H](NC(=NC#N)Nc2ccc(Cl)cc2)[C@H]1O [Example 26, (2R, 3R, 4S)-N''-cyano-N-(3,4-dihydro-3-hydroxy-2-methyl-2-dimethoxymethyl-2H-benzopyran-4-yl)-N'-(4-chlorophenyl)guanidine] | > 1000
COC(OC)[C@]1(C)Oc2ccc([N+](=O)[O-])cc2[C@H](NC(=NC#N)Nc2ccc(Cl)cc2)[C@H]1O [Example 1, (2R, 3R, 4S)-N''-cyano-N-(6-nitro-3,4-dihydro-3-hydroxy-2-methyl-2-dimethoxymethyl-2H-benzopyran-4-yl)-N'-(4-chlorophenyl)guanidine] | > 1000
COc1ccc(CNC(=NC#N)N[C@@H]2c3cc(N)ccc3O[C@](C)(C(OC)OC)[C@H]2O)cc1 [Example 51, (2S,3S,4R)-N''-cyano-N-(6-amino-3,4-dihydro-3-hydroxy-2-methyl-2-dimethoxymethyl-2H-benzopyran-4-yl)-N'-(4-methoxybenzyl) guanidine] | > 1000
COC[C@@]1(C)Oc2ccc([N+](=O)[O-])cc2[C@H](NC(=NC#N)Nc2ccc(Cl)cc2)[C@H]1O [Example 30, (2R, 3R, 4S)-N''-cyano-N-(6-nitro-3,4-dihydro-3-hydroxy-2-methyl-2-methoxymethyl-2H-benzopyran-4-yl)-N'-(4-chlorophenyl)guanidine] | > 1000
